# Source: patent US10884004B2, “Taggable fluorescent probe for calcium ion detection” (The University of Tokyo, priority 2016, dated 2021)
# Key:
# [1] = tested on: Rat hippocampus-derived nerve cells; assay: Ca2+ imaging on electrical stimulation of probe-labeled hippocampus-derived nerve cells; type: cell-based; conditions: electrical stimulation 10 times at 100 Hz; HaloTag fusion protein expressed in nerve cells
# Method: (§1) HEK 293T cells (GenHunter) were cultured in Dulbecco's Modified Eagle's Medium (DMEM) (Wako) containing 10% FBS, 4 mM L-glutamine (Wako), and 1 mM sodium pyruvate (Wako) at 37° C. in an atmosphere of 5% CO2. For nerve cells, a fetus was removed from Sprague-Dawley rat on day 21 of pregnancy under anesthesia, and the hippocampus immediately extracted from the fetal brain was digested with trypsin (Invitrogen) and DNase I (Sigma) to separate nerve cells. The nerve cells were cultured on a monolayer of glial cells in a Neurobasal A medium (Invitrogen) containing 2% B-27 supplement (Invitrogen), 1 mM sodium pyruvate (Wako), 1% glutamax (Invitrogen), 1% penicillin-streptomycin mixed solution (nacalai tesque) at 37° C. in an atmosphere of 5% CO2.
# A DNA fragment obtained by fusing a sequence encoding a HaloTag protein in series on the C-terminal side of the DNA sequence encoding the vesicular membrane […] transporter (VGLUT1) was subcloned into a lentiviral vector (pLenti6PW) to prepare pLenti vglut1-chalo. […]
# (§2) Fluorescence images were acquired using an inverted microscope (IX-71, Olympus), an EM-CCD camera (Andor, iXon), an objective lens ([…]), and a filter set for RFP. […]
# [2] = in vitro Ca2+ titration of the esterase hydrolysate of Compound 14 in Ca2+ buffer (spectrofluorophotometer); type: binding; conditions: hydrolysate obtained by esterase treatment; buffer with adjusted Ca2+ concentration (100 mM KCl, 30 mM MOPS)
# Method: A 100 μL PBS solution containing Compound 14 (final concentration 80 μM), Pluronic F127 (0.2%), and Esterase Pseudomonas fluorescens (0.42 units/μL) (SIGMA) was prepared and hydrolysis reaction was carried out at 37° C. To follow the time course of the reaction, a part of the sample was taken during the reaction and the fluorescence intensity in 10 mM Ca^2+ buffer was measured with a spectrofluorophotometer (JASCO, FP-6500). When the fluorescence intensity ceased to change almost completely, the reaction was stopped to obtain a hydrolysate of Compound 14.
# A free Ca^2+ concentration in a buffer containing 100 mM KCl and 30 mM 3-morpholinopropanesulfonic acid (MOPS) was adjusted using a Ca-ethylene glycol tetraacetic acid (EGTA) system (0-1 μM), a Ca-nitrilotriacetic acid (NTA) system (3.2 μM-794.3 μM), an unbuffered system (CaCl2) (3.2 mM-10 mM). The adjustment of free Ca^2+ concentration in the Ca-EGTA system or in the Ca-NTA system was carried out using the following formula (1). […]
# In order to evaluate the chemical characteristics of the synthesized Compound 14, a hydrolysate was obtained by esterase treatment according to the above method, and the fluorescence intensity in a buffer in which the Ca^2+ concentration was adjusted was measured with a spectrofluorophotometer.
# HEK 293T/Halo-RimZF-CAAX [3] = assay: staining / localization in HEK 293T cells expressing HaloTag protein on the cell membrane; type: cell-based; conditions: 5 μM probe, Ringer's solution, 30 minutes, room temperature
# Method: as §1
# Next, a DNA fragment encoding HaloTag and a DNA fragment encoding RimZF were fused by PCR. At this time, a DNA fragment expressing a fusion protein of HaloTag, RimZF, and CAAX motif was obtained by adding a DNA sequence encoding a CAAX motif of the KRas gene (KMSKDGKKKKKKSKTKC-VIM) to the primer. […]
# as §2
# [4] = in situ calibration of the labeled probe in fixed, permeabilized HEK 293T/Halo-RimZF-CAAX; type: cell-based; conditions: probe labeled on HEK 293T/Halo-RimZF-CAAX, 4% PFA fixed, 20 μM digitonin
# Method: (§3) HEK 293T cells were seeded in metal rings on a cover glass coated with 0.01% collagen and 25 μg/ml poly-L-lysine (nacalai tesque) 16 hours after gene transfer so that the number of cells per ring was 40,000 and cultured at 37° C. and a carbon dioxide concentration of 5%. Three and a half hours later, the extracellular fluid was replaced with Ringer's solution (5 mM HEPES, 150 mM NaCl, 4 mM KCl, 2 mM CaCl2, 1 mM MgCl2, 0.1% glucose, pH 7.2) containing a Ca^2+ probe (compound 14 or Calcium Green, AM (Invitrogen)) or a fluorescent ligand (halo TMR, halo Oregon) (final concentration 5 μM) and 0.02% Plulonic F127 and left to stand at room temperature for 30 minutes while being shielded from light. The cells labeled with compound 14 and the fluorescent ligand was then exchanged with serum-free DMEM, removal of probes that were liberated at 5% carbon dioxide concentration and 37° C. was carried out for 30 minutes, and the extracellular solution was exchanged again with Ringer's solution. […]
# The labeled HEK 293T/Halo-RimZF-CAAX was immobilized with 4% PFA/PBS for 10 minutes, subjected to membrane permeabilization with 20 μM digitonin, and a change in fluorescence when the Ca^2+ concentration of the extracellular solution was changed was measured.
# Next, Ca^2+ response characteristics of the labeled probe were evaluated by in situ calibration.
# HEK 293T/Halo-RimZF-CAAX [5] = assay: Ca2+ imaging on ionomycin stimulation of probe-labeled HEK 293T/Halo-RimZF-CAAX; type: cell-based; conditions: ionomycin (10 μM); local Ca2+ signal on the cell membrane
# Method: as §3, with “light.” for “light. The cells labeled with compound 14 and the fluorescent ligand was then exchanged with serum-free DMEM, removal of probes that were liberated at 5% carbon dioxide concentration and 37° C. was carried out for 30 minutes, and the extracellular solution was exchanged again with Ringer's solution.”
# as §2
# In addition, ionomycin was added to a probe-labeled HEK 293T/Halo-RimZF-CAAX in order to see the response characteristics to the Ca^2+ signal induced by the ionophore, and then changes with time of the fluorescence intensity were measured (FIG. 5). […]
smiles,measurement,setting,value
"CC(=O)OCOC(=O)COc1cc(NC(=O)c2ccc3c(c2)C(=O)OC32c3cc(Cl)c(OC(C)=O)cc3Oc3cc(N4CC(C(=O)NCCOCCOCCCCCCCl)C4)c(Cl)cc32)ccc1N(CC(=O)OCOC(C)=O)CC(=O)OCOC(C)=O (centres unmarked) [Compound 14, bis(acetoxymethyl) 2,2′-((4-(3′-acetoxy-2′,7′-dichloro-6′-(3-((2-(2-((6-chlorohexyl)oxy)ethoxy)ethyl)carbamoyl)azetidin-1-yl)-3-oxo-3H-spiro[isobenzofuran-1,9′-xanthene]-5-carboxylic acid amido)-2-(2-(acetoxymethoxy)-2-oxoethoxy)phenyl)azanediyl) diacetate]",Ca2+ signal change on electrical stimulation,[1],a Ca^2+ signal change corresponding to the stimulus was observed
same,Fmax/Fmin (fluorescence intensity of Ca2+-bound vs unbound probe),[2],10.8
same,localization of fluorescence after staining,HEK 293T/Halo-RimZF-CAAX [3],fluorescence localized on the cell membrane on which the HaloTag protein is expressed was observed
same,Fmax/Fmin,[4],4.7
same,change in fluorescence intensity due to ionomycin stimulation,HEK 293T/Halo-RimZF-CAAX [5],increased the fluorescence intensity
